Results from US8093209B2, “Methods of suppressing microglial activation and systemic inflammatory responses” (Cognosci, Incorporated, priority 2002, dated 2012).

How the values were obtained:
LDL receptor = LDL receptor (Homo sapiens, UniProt P01130); details: lipid-free peptide; cited from earlier work
[1] = system: thioglycollate-elicited peritoneal macrophages; test: [Ca2+]i in Fura-2/AM treated single macrophages, digital imaging microscopy (Example 10); assay type: cell-based, mouse; details: 1000-fold molar excess RAP, 10 mM NiCl2, or 1 μg/ml pertussis toxin 12 h
Method: (§1) Macrophage Harvesting. All experiments involving animals were first approved by the Duke Institutional Animal Care and Use Committee. Pathogen-free female C57BL/6 mice and ApoE deficient mice previously backcrossed 10 times to the C57BL/6 strain were obtained from the Jackson Laboratory (Bar Harbor, Me.). Thioglycollate-elicited peritoneal macrophages were harvested by peritoneal lavage using 10 ml of ice-cold Hanks' balanced salt solution containing 10 mM HEPES and 3.5 mM NaHCO3 (HHBSS), pH 7.4. The macrophages were pelleted by centrifugation at 4° C. at ˜800×g for 10 min and resuspended in RPMI 1640 media supplemented with 25 mM HEPES, 12.5 U/ml penicillin, 6.5 mg/ml streptomycin, and 5% fetal bovine serum.
Measurement of [Ca^2+]i in apoE and peptide treated macrophage. Changes in [Ca^2+]i levels in Fura-2/AM treated single cells were quantified using digital imaging microscopy in accordance with known techniques. Macrophages were plated on glass coverslips sitting in 35 mm Petri dishes at a density of 1.5×10^5 cells/cm^2, and allowed to adhere for 2 h in a humidified 5% CO2 incubator at 37° C. The non-adherent cells were aspirated and the monolayers were washed twice with HHBSS. 4 μM Fura-2/AM was incubated with the cells for thirty min in the dark at room temperature and [Ca^2+]i was subsequently measured using a digital imaging microscope in accordance with known techniques. […] To determine if signaling resulted from ligation of the ligand to LRP, cells were preincubated with a 1000-fold molar excess of RAP or 10 mM NiCl2, both of which inhibit ligand binding to LRP, for 5 min prior to stimulation with apoE or peptide. In experiments in which the involvement of a G protein was assessed, monolayers were incubated with 1 μg/ml pertussis toxin for 12 h at 37° C. and Ca^2+ measurements were made as stated above.

[2] = system: thioglycollate-elicited peritoneal macrophages; test: IP3 formation in myo-[2-3H]inositol-labeled macrophages (Example 10); assay type: cell-based, mouse; details: pertussis toxin pretreatment
Method: as §1, with “serum. Cell viability was determined by the trypan blue exclusion method and was consistently greater then 95%.” for “serum.”
Measurement of IP3 in apoE treated macrophage and effect of pertussis toxin. The formation of IP3 in myo-[2-^3H]inositol-labeled macrophages under various experimental conditions was quantified in accordance with known techniques. Macrophage were plated in 6 well plates (4×10^6 cells/well) and allowed to adhere at 37° C. for 2 h in a humidified 5% CO2 incubator. Medium was aspirated from the monolayers and RPMI 1640 medium containing 0.25% BSA and myo-[2-^3H]inositol (specific activity 10-20 Ci/mmol) was added to each well. […] Radioactivity was determined by placing aliquots in a liquid scintillation counter to determine radioactivity. […] The effect on IP3 formation was measured as described above.

[3] = system: primary rat neuronal/glial cultures exposed to NMDA; test: NMDA-induced LDH release in primary neuronal-glial cultures; assay type: cell-based; details: 6 μM peptide, 100 μM NMDA
Method: (§2) Primary neuronal-glial cultures were prepared from fetal Sprague-Dawley rat brains at 18 days of gestation as previously described (Pearlstein et al., 1998). Brains were harvested from 10-15 pups and dissected to separate cortex from meninges and subcortical structures using anatomical landmarks. Cortices were pooled and minced into 2 mm^3 pieces in a buffered salt solution supplemented with 20 mM HEPES buffer, pH 7.4, containing 0.25% trypsin. The tissue was incubated for 20 minutes at 37° C. in a 5% CO2/95% room air atmosphere, and washed twice with ice-cold, glutamine-free minimum essential medium (MEM; Life Technologies) containing 15 mM glucose, 5% fetal bovine serum (GIBCO), 5% horse serum (GIBCO), and 1% DNase-I (Sigma Chemical Co., St. Louis, Mo., USA). Tissue pieces were dissociated by trituration through a fire-polished 9-inch Pasteur pipette (I.D.=0.7 mm). The resultant suspension was centrifuged at 50×g for 10 min, the supernatant discarded, and the pellet resuspended in growth medium (MEM supplemented with 15 mM glucose, 5% fetal bovine serum, and 5% horse serum). The dissociated cells were plated to achieve a confluent monolayer using 4×10^5 cells per well in poly-D-lysine coated, 24-well culture plates (Falcon 3047; Becton Dickinson Co., Lincoln Park, N.J., USA). Cultures were maintained undisturbed at 37° C. in a humidified 5% CO2/95% room air atmosphere for 13-16 days prior to use.
Mature cultures (13-16 days in vitro) were washed with Mg^2+-free buffered salt solution (BSS) containing 20 mM HEPES buffer (pH7.4) and 1.8 mM CaCl2, prior to the addition of NMDA. Following NMDA exposure, cultures were maintained for 30 minutes at 37° C. in a 5% CO2/95% air atmosphere. The medium containing NMDA was then removed and replaced with MEM supplemented with 20 mM glucose. The cultures were returned to the incubator for 24 h. In all experiments, cellular damage was assessed at 24 h after exposure to NMDA by measurement of the activity of lactate dehydrogenase (LDH) released into the medium as described below. The non-competitive NMDA receptor antagonist, MK-801 (Tocris Cookson Ins., St. Louis, Mo.) at a concentration of 10 μM was used as a positive control. Preliminary dose-response studies were performed to determine the concentration of NMDA (100 μM) required to effect a near-maximal LDH release (ED90) as used in the present study.
The effect of human recombinant apoE (Panverra, Madison, Wis.) on 100 μM NMDA-induced LDH release was assessed and the dose-response curve was obtained (apoE: 0.1-10 μM final concentration). ApoE3, the most common human isoform, was added to the cultures 30 minutes prior to and removed following NMDA exposure. The effect of apoE peptide (133-149) on NMDA (100 μM or 300 μM)-induced LDH release was next assessed and the dose-response curve was obtained in a separate set of sister cultures that were simultaneously treated under one of the following conditions: (1) various doses of peptide (0.3 μM, 1 μM, 3 μM, 6 μM, 10 μM final concentration) were added to the culture immediately prior to and removed at the end of NMDA exposure; (2) no peptide, NMDA exposure; (3) no peptide, no NMDA exposure; (4) no peptide, NMDA exposure with 10 μM MK-801 for 30 minutes. The effect of a scrambled control peptide on NMDA-induced LDH release was similarly assessed.
The effect of time of administration of apoE peptide (133-149) on NMDA-induced LDH release was assessed in a separate set of sister cultures that were simultaneously treated under one of following conditions: (1) peptide was added to the culture medium 24 h prior to and removed immediately before exposure to NMDA; (2) peptide was added immediately prior to and removed at the end of the NMDA exposure; (3) peptide was added immediately following the 30 minutes NMDA exposure; (4) no peptide, NMDA exposure; (5) no peptide, no NMDA exposure. […]

[4] = system: primary rat neuronal/glial cultures exposed to NMDA; test: NMDA-induced 45Ca uptake by primary neuronal-glial cultures; assay type: cell-based; details: 10 μM MK-801 pretreatment, 100 μM NMDA
Method: as §2
Cellular calcium uptake from the extracellular space was assessed using ^45CaCl2 (American Radiolabeled Chemicals, St. Louis, Mo.). After washing the cultures with Mg^2+-free BSS containing 20 mM HEPES buffer, 6 μM peptide or 10 μM MK-801 was added to each well prior to and removed at the end of 100 μM NMDA exposure. ^45Ca (0.28 μCi/ml, 0.9 μCi/well) was added to each well immediately prior to NMDA exposure. The cultures were returned to the incubator and maintained at 37° C. Twenty minutes later, the exposure medium was removed and each well was washed 3 times with ice-cold Mg^2+-free BSS containing 20 mM HEPES buffer. The cells were subsequently lysed by addition of 0.2% sodium dodecyl sulfate (SDS). An aliquot from each well was added to a liquid scintillation vial containing 10 ml Cytoscint™ (ICN, Biochemical Research Product, CA) and radioactivity was determined by scintillation counting and normalized to cell count.

[5] = system: enriched microglia primary cultures from apoE deficient mouse pups; test: LPS-stimulated nitric oxide (nitrite) secretion by enriched microglia primary cultures; assay type: cell-based; details: peptide dose of 2 mM, LPS 100 ng/ml
Method: Culture preparation and characterization: Mixed glial cell cultures were prepared from: (a) wildtype (C57B16; Jackson Laboratories) mouse pups; (b) ApoE deficient mutant mouse pups (ApoE-deficient mice), and (c) transgenic mouse pups expressing human ApoE3 but not murine ApoE (ApoE3 mice). See Xu et al., Neurobiol. Dis. 3:229 (1996) regarding the creation and characterization of the transgenic mice. Mixed glial cell cultures were prepared as has been described. See McMillian et al., Neurochem. 58:1308 (1992); Laskowitz et al., J. Neuroimmunol. 76:70 (1997). Briefly, brains were removed from 2-4 day old pups, cleaned of membranes and blood vessels, mechanically dispersed in Ca^+2-free media, and collected by centrifugation. Cells were then plated in DMEM/F12 (containing 10% fetal calf serum, 1% penicillin/streptomycin, Gibco #15070), one brain per 25 cm flask. […]
Nitrite Quantification The production of NO was assessed by measuring the accumulation of nitrite, which was quantified using a calorimetric reaction with Griess reagent (0.1% N-1-naphthylethylenediamine dihydrochloride, 1% sulfanilamide, and 2.5% H3PO4). Absorbance was measured at 570 nm by spectrophotometry. […]
Enriched microglia primary cultures were prepared from the brains of apoE deficient mouse pups as described in Example 1, above. […] Nitric oxide production was assessed as described in Example 1. […]

LDL receptor, sequence (P01130 22-860, species assumed): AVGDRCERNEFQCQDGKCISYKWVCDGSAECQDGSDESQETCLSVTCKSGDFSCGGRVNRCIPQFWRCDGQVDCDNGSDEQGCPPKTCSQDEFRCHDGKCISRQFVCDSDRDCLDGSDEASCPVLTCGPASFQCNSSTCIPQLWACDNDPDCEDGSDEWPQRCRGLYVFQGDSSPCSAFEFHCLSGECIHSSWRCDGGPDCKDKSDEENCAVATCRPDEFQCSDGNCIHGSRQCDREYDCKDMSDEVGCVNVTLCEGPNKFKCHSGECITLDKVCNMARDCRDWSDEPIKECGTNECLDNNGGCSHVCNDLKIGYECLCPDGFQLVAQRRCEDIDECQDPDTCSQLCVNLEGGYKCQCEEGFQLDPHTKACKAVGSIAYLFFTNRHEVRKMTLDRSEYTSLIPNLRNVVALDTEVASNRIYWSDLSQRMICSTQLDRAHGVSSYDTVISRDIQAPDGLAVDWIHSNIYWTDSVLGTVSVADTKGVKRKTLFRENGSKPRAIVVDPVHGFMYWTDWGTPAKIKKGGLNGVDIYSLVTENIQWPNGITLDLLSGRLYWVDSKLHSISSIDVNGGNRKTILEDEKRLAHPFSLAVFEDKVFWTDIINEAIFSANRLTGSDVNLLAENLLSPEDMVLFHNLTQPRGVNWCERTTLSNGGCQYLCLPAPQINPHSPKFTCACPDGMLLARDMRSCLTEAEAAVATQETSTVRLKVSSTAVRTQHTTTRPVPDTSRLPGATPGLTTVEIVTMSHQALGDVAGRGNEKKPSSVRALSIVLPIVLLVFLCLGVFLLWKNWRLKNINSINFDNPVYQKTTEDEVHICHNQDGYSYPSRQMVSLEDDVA

In the case of “141-155 monomer: lipid-free synthetic peptide comprising residues 141-155 of ApoE (Dyer et al.) (LRKLRKRLLRDADDL; UniProt P02649 159-173, looked up, fragment)”, the “LDL receptor binding activity” value (LDL receptor) is given as “No binding activity was observed”.
For `[Cl][Ni][Cl]` [Ni^+2, NiCl2, reference compound], the “effect of preincubation on apoE-induced [Ca2+]i increase” value [1] was “markedly attenuated the [Ca^2+]i increases”.
With pertussis toxin [reference compound] the “effect of preincubation on apoE-induced [Ca2+]i increase” value [1] was “markedly attenuated the ApoE-dependent Ca^2+ response” and the “effect of pretreatment on apoE-induced IP3 increase” value [2] was “completely abolished this increase in IP3”.
For “141-155 dimer: dimeric peptide of ApoE residues 141-155 (Dyer et al.)”, the LDL receptor binding (LDL receptor) is given as ~1 % of LDL activity.
For “ApoE (136-149): 14 amino acid peptide, three amino-terminal residues removed from ApoE (133-149) (Ac-RLASHLRKLRKRLL-NH2; listed as Homo sapiens)”, the “protection against NMDA-induced cell damage, truncated peptides” value [3] was “modest protection against NMDA toxicity”.
For `C[C@]12N[C@H](Cc3ccccc31)c1ccccc12` [MK-801, reference compound], the NMDA-induced calcium influx [4] was “completely reversed”.
With “LRKLRKRLL (fragment of ApoE containing LDL receptor binding site) [SEQ ID NO:2, 9-mer monomer, ApoE positions 141-149, used as control]” the “nitric oxide secretion by activated microglia” value [5] was “did not result in any apparent decrease in nitric oxide secretion”.
With “ApoE (139-149): 11-residue peptide, six amino-terminal residues removed from ApoE (133-149) (Ac-SHLRKLRKRLL-NH2; listed as Homo sapiens)” the “protection against NMDA-induced cell damage, truncated peptides” value [3] was “no detectable bioactivity”.
